Test results from patent US12239686B2, “Immune checkpoint inhibitor combinations” (LYTIX BIOPHARMA AS, priority 2014, dated 2025).
Non-standard residues stand in square brackets, D forms with d. Residues, ends and D or L forms follow the SMILES beside them. Dip = N[C@H](C(=O)O)C(c1ccccc1)c1ccccc1

Test system: human red blood cells
Experiment: Haemolytic activity in vitro
Type: cell-based
Details: 1 h, 37° C.
Description: Freshly collected human blood was centrifuged at 1500 rpm for 10 minutes in order to isolate the red blood cells. The red blood cells (RBC) were washed three times with PBS [35 mM phosphate buffer with 150 mM NaCl, pH 7.4] by centrifugation at 1500 rpm for 10 minutes, and adjusted to 10% haematocrit with PBS. LTX-315 solutions were added to give a final concentration range of the peptide from 1200 μg/ml to 1 μg/ml and an RBC concentration of 1%. The resulting suspension was incubated with agitation for one hour at 37° C. After incubation the suspension was centrifuged at 4000 rpm for 5 minutes, and the released haemoglobin were monitored by measuring the absorbance of the supernatant at 405 nm. PBS was used as negative control and assumed to cause no haemolysis. 0.1% Triton was used as positive control and assumed to cause complete haemolysis.
Released haemoglobin was monitored by measuring the absorbance of the supernatant at 405 nm, and percent haemolysis was calculated by the equation: […]
LTX-315 concentration corresponding to 50% haemolysis (ECs) was determined from a dose-response curve.

SMILES: NCCCC[C@H](NC(=O)[C@@H](NC(=O)[C@H](Cc1c[nH]c2ccccc12)NC(=O)[C@H](CCCCN)NC(=O)[C@H](CCCCN)NC(=O)[C@H](Cc1c[nH]c2ccccc12)NC(=O)[C@H](Cc1c[nH]c2ccccc12)NC(=O)[C@H](CCCCN)NC(=O)[C@@H](N)CCCCN)C(c1ccccc1)c1ccccc1)C(N)=O [LTX-315, K-K-W-W-K-K-W-Dip-K-NH2] (H-KKWWKKW[Dip]K-NH2)
- Mean cell death (%) (LTX-315 1 μg/ml): 0.0%
- Mean cell death (%) (LTX-315 10 μg/ml): 0.6%
- Mean cell death (%) (LTX-315 50 μg/ml): 1.6%
- Mean cell death (%) (LTX-315 100 μg/ml): 3.6%
